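Tested at 5 concentrations; 48 h exposure; 96-well plates; endpoints linearly interpolated, else capped at highest concentration. Here, GI50 denotes the concentration required for 50% inhibition of growth. TGI: concentration producing complete growth inhibition.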
Legend:
Experiment in all cases: NCI-60 cell line screen, 48 h
ACHN renal = system: ACHN renal
CCRF-CEM leukemia = system: CCRF-CEM leukemia
COLO 205 colon = system: COLO 205 colon
HOP-62 NSCLC = system: HOP-62 NSCLC
M14 melanoma = system: M14 melanoma
SK-OV-3 ovarian = system: SK-OV-3 ovarian
SR leukemia = system: SR leukemia
OVCAR-3 ovarian = system: OVCAR-3 ovarian
SF-295 CNS = system: SF-295 CNS
T-47D breast = system: T-47D breast

SMILES | TGI (ACHN renal) [µM] | TGI (CCRF-CEM leukemia) [µM] | TGI (COLO 205 colon) [µM] | TGI (HOP-62 NSCLC) [µM] | TGI (M14 melanoma) [µM] | TGI (SK-OV-3 ovarian) [µM] | TGI (SR leukemia) [µM] | TGI (OVCAR-3 ovarian) [µM] | TGI (SF-295 CNS) [µM] | TGI (T-47D breast) [µM] | GI50 (ACHN renal) [µM] | GI50 (CCRF-CEM leukemia) [µM] | GI50 (COLO 205 colon) [µM] | GI50 (HOP-62 NSCLC) [µM] | GI50 (M14 melanoma) [µM] | GI50 (OVCAR-3 ovarian) [µM] | GI50 (SF-295 CNS) [µM] | GI50 (SK-OV-3 ovarian) [µM] | GI50 (SR leukemia) [µM] | GI50 (T-47D breast) [µM]
C1CCOC2(CCC3(CC2)OCCCCO3)OC1 | > 100 | > 100 | > 100 | > 100 | > 100 | > 100 | > 100 |  |  |  |  |  |  |  |  |  |  |  |  | 
C=C1CCC2[C@@H](CCC3[C@]2(C)CCC[C@]3(C)C(=O)OC)C1CCO (stereo partly drawn) | 29.4 | 33.1 | 27.9 | 41.7 | 26.5 | 45.3 |  | 26 | 30.9 |  |  |  |  |  |  |  |  |  |  | 
C=C1CCc2occ(C)c2C2C1C1=C(CC(C)C1=O)C1OC12C (stereo not drawn) | > 100 | > 100 | > 100 | > 100 | > 100 | > 100 |  | > 100 | > 100 |  |  |  |  |  |  |  |  |  |  | 
C=CCNC(=O)NCCCC(NC(C)=O)C(=O)NCc1ccccc1 (stereo not drawn) | > 100 | > 100 | > 100 | > 100 | > 100 | > 100 |  | > 100 | > 100 |  |  |  |  |  |  |  |  |  |  | 
CC12CC(OC(=O)[C@]1(C)O)[C@@H]([C@]1(O)CC[C@H]3[C@@H]4C[C@H]5O[C@]56[C@@H](O)C=CC(=O)[C@]6(C)[C@H]4CC[C@@]31C)C2 (stereo partly drawn) | 22.9 | 7.16 | 10.7 | > 100 | 24.9 | > 100 |  | 7.72 | > 100 | 32.9 |  |  |  |  |  |  |  |  |  | 
CCCC(Sc1ccccc1)P(=O)(c1ccccc1)c1ccccc1 (stereo not drawn) | 61.4 | > 100 | > 100 | > 100 | > 100 | 50.7 | 66.4 | > 100 | > 100 |  |  |  |  |  |  |  |  |  |  | 
N.N.NCCCCCCN.O=C([O-])CC(=O)[O-].O=C([O-])CC(=O)[O-].[Pt+4].[Pt+4] | > 100 | > 100 | > 100 | > 100 | > 100 | > 100 | > 100 | > 100 | > 100 |  | 36.1 | 15.6 | 27.7 | 38.7 | > 86.7 | > 89.7 | > 71.6 | > 100 | > 41.9 | 
C=CC1C(OC2OC(CO)C(O)C(O)C2O)OC=C(C(=O)OC)C1CC=O (stereo not drawn) | > 100 |  | > 100 | > 100 | > 100 | > 100 | > 100 | > 100 | > 100 |  |  |  |  |  |  |  |  |  |  | 
Cc1cn2c(/C=N/Nc3ccccn3)c(-c3ccc(Cl)c([N+](=O)[O-])c3)nc2s1 | 15.5 |  | > 50 | 18.9 | 23 | 22.5 | 10.6 | 27.3 | > 50 | > 50 | 6.89 |  | > 50 | 10.7 | 10.8 | 11 | 23 | 9.95 | 1.86 | > 50
CCC1CCc2c(OC)ccc(OCC(=O)O)c2C1=O (stereo not drawn) | > 100 | > 100 | > 100 | > 100 | > 100 | > 100 | > 100 | > 100 | > 100 |  |  |  |  |  |  |  |  |  |  | 
CCN(CC)CC(C(=O)Nc1c(C)cccc1C)/C(C)=N\NC(=O)c1ccncc1 (stereo not drawn) | > 100 |  | > 100 | > 100 | > 100 | > 100 | > 100 | > 100 | > 100 |  |  |  |  |  |  |  |  |  |  | 
C/C=C/C=C/CCCCCCCCCCCCCC1(OC)C=CC(CC(=O)OC)OO1 (stereo not drawn) | 16.7 | 5.8 | 3.19 | 41.6 | 28.6 | 33.9 | 7.13 | 20.6 | 6.34 |  | 6 | 2.44 | 1.76 | 20 |  | 6.7 | 2.58 |  |  | 
CC(C)C[C@H](NC(=O)[C@@H](O)[C@H](N)Cc1ccc([N+](=O)[O-])cc1)C(=O)O | > 25 |  | > 25 | > 25 | > 25 | > 25 |  | > 25 | > 25 | > 25 | > 25 |  | > 25 | > 25 | > 25 | 0.0025 | > 25 | > 25 |  | > 25
S=C(Nc1cc(Cl)c(Cl)cc1Cl)SCc1ccccc1 | 42.7 |  | > 100 | 56 | > 100 | > 100 | 10.8 | 49.3 | 42.6 | > 100 |  |  |  |  |  |  |  |  |  | 
Cc1c(Cl)cccc1NC1=C(Cl)C(=O)N(Cc2ccccc2)C1=O | 8.92 | 12.5 | 57.2 | 20.4 | 22 | 30.2 |  | 15.2 | 14.4 | > 100 | 1.29 | 0.392 | 22.1 | 7.65 | 10.2 | 1.47 | 3.01 | 14.7 |  | 25.4
O=C1CCC2(c3ccccc3)Nc3ncccc3N12 (stereo not drawn) | > 100 | > 100 | > 100 | > 100 | > 100 | > 100 |  | > 100 | > 100 |  |  |  |  |  |  |  |  |  |  | 
COC(=O)c1cc(-c2cccn2C)c2c(c1C(=O)OC)c1ccccc1n2C | > 100 |  | > 100 |  | > 100 | > 100 | > 100 | > 100 | > 100 |  |  |  |  |  |  |  |  |  |  | 
CC(=O)NC1CC2Oc3ccc(C)cc3C(C)(O2)C1O (stereo not drawn) | > 100 | > 100 | > 100 | > 100 | > 100 | > 100 |  | > 100 | > 100 |  |  |  |  |  |  |  |  |  |  | 
CC1CCC(C(C)C)C(O[C@@H]2OC(=O)C[C@@H]2Sc2ccccc2)C1 (stereo partly drawn) | 41.7 | 26.8 | 36.8 | 96 | 59.3 | 91.7 |  | 28.8 | 54.6 |  |  |  |  |  |  |  |  |  |  | 
CCOc1ccccc1/C=N\N=C(\N)N/N=C/c1ccccc1OCC | > 100 | > 100 |  | > 100 |  | > 100 |  | 4.48 | > 100 | > 100 | 3.82 | 3.06 |  | 5.73 |  | 1.69 | 1.36 | 2.93 |  | 3.73

Reference: PubChem BioAssay (NCI)
